The text below walks through data of patent publication US7582652B2, “Kinase inhibitors” (Eli Lilly and Company, priority 2004, dated 2009).

In general, pIC50 refers to the negative decadic logarithm of the IC50, by convention in mol/L. A high value points to a low IC50.

Assay [1] deals with TNF-α production in mouse peritoneal macrophages. Briefly: Inhibition of TNF-α in vitro (mouse peritoneal macrophages, LPS/interferon-γ, Luminex). The following applies: suppression of TNF-α; macrophages treated with 50 ng/mL LPS and 10 U/mL interferon-γ for 18 h. In kind it is cell-based. On the procedure: Mouse Peritoneal Macrophages
1 mL thioglycolate broth (5.0 g yeast extract, 15.0 g casitone or trypticase, 5.0 g dextrose, 2.5 g sodium chloride, 0.75 g L-cystine, 0.5 g sodium thioglycolate, 1.0 mg resazurin, and 0.75 g agar in 1.0 L distilled water) is injected into the peritoneal cavity of Balb/C female mice. At day 4 or 5 post-injection the mice are sacrificed and then injected i.p. with 4 mL RPMI-1640 medium (BioWhittaker) and the peritoneal macrophages are withdrawn by syringe.
Mouse peritoneal microphages are counted with a hemocytometer and adjusted to 5×10^5 cells/well in 96-well plates in RPMI-1640 medium with 10% fetal bovine serum. 200 μL/well is plated in 96-well plates and the cells allowed to settle and adhere to the bottom of the well for at least 3 h. The test compound or standard p38 kinase inhibitor is pre-treated using a series of 8 concentrations for 1 h at 37° C. (20 μL/well). The cells are treated with a mixture of 50 ng/mL lipopolysaccharide (LPS) and 10 U/mL interferon-γ for 18 h at 37° C. (20 μL/well). The conditioned media is harvested and assayed for TNF-α production using the Luminex procedure.
TNF-α/Luminex Detection Assay (Bio-Rad Bio-Plex Kit—Catalog #171-G12221)
The lyophilized premixed TNF-α standard (1 standard tube/two 96-well plates) is reconstituted with 50 μL sterile water (500,000 pg/mL). The samples are vortexed for 5 seconds, incubated on ice for 30 min, and vortexed for 5 seconds before use. A set of twelve 1.5 mL tubes are labeled with #1-thru #12 and then the amounts of cell media shown below added to the appropriate tubes (standard concentrations are as follows: 50,000; 25,000; 12,500; 6,250; 3,125; 1,562.5; 781.3; 390.6; 195.3; 97.7; 48.8; and 24.4 pg/mL). The premixed anti-cytokine conjugated beads are vortexed (25×) vigorously for 30 seconds. The anti-cytokine conjugated beads are diluted to a 1× concentration using 1× Bio-Plex Assay Buffer. For every plate, 240 μL of the pre-mixed beads is added to 5760 μL of Bio-Plex Assay Buffer. A Millipore 96-well filter plate is blocked with 100 μL/well of blocking buffer. The blocking buffer is filtered through using a Millipore filtration system and then toweled dry. 2 washes are performed on the filter plate with 100 μL/well of Bio-Plex Assay Buffer and toweled dry. The 1× anti-cytokine conjugated beads are vortexed for 15 seconds and added 50 μL to each well. This is filtered through and toweled dry. 2 washes are performed on plates with 100 μl/well of Bio-Plex Wash Buffer. Again, it is filtered through and toweled dry. 50 μL of sample or standard is added to each sample well. This is incubated for 60 seconds at RT on a shaker protected from light at setting 6 and then for 30 min at setting 3 and then placed in the refrigerator overnight. 3 washes are performed with Bio-Plex Wash Buffer. Filter through and toweled dry. The cytokine detection antibody is prepared (˜10 min prior to use) for every plate and 60 μL of the premixed cytokine detection antibody stock is added to 5940 μL of Bio-Plex Detection Antibody Diluent. 50 μL of cytokine detection antibody is added and incubated for 60 seconds at RT on a shaker protected from light at setting 6 and then for 30 min at setting 3.3 washes are performed with the Bio-Plex Wash Buffer. This is filtered through and toweled dry. Strept-PE (˜10 minutes prior to use) is prepared for every plate and 60 μL to 5940 μL of Bio-Plex Assay Buffer added. 50 μL of Streptavidin-PE is added to each well and incubated for 60 seconds at RT on a shaker protected from light at setting 6 and then for 10 min at setting 3. 3 washes are performed with Bio-Plex Wash-Buffer. This is filtered through. The beads are re-suspended in 100 μL/well of Bio-Plex Assay Buffer. Standards and samples are read on a Luminex machine. […]

Assay [2] relates to TNF-α synthesis in synovial lavage fluid. Briefly: Effect on intra-articular LPS induced TNF-α. In kind it is in vivo, female Lewis rats. On the procedure:
Effect on Intra-articular LPS Induced TNF-α
Intra-articular injection of LPS into rat ankles induces the synthesis of TNF-α, which can be measured in synovial lavage fluid. High levels of TNF-α are detectable within 2 hours. Since the joint is the site where arthritis develops, this model can rapidly determine whether an orally administered compound has an effect on an inflammatory response in the synovium.
Six female Lewis rats (150-200 g) are place in each treatment group. The animals are given vehicle (1% NaCarboxymethylcellulose-0.25% Tween 80) or test compound (1 mg/kg, 3 mg/kg, 10 mg/kg, and 30 mg/kg) orally. One hour later, 10 μl LPS (10 μg) is administered intra-articularly into the right ankle of each rat, while the left ankle receives 10 μL of saline. After two hours, each ankle is lavaged with 100 μL of saline. The lavage is collected and stored at −80° C. • Group#1: Vehicle (1% NaCMC-0.25% Tween 80, 1 mL, PO) • Group#2: Test compound (1 mg/kg, 1 mL, PO) • Group#3: Test compound (3 mg/kg, 1 mL, PO) • Group#4: Test compound (10 mg/kg, 1 mL, PO) • Group#5: Test compound (30 mg/kg, 1 mL, PO)
TNF-α is measured with a commercially available ELISA kit (R&D, RTA00).

The subject of assay [3] is collagen induced arthritis (ankle diameter). Briefly: Rat collagen induced arthritis efficacy model. In kind it is in vivo, female Lewis rats. As to conditions: PO bid x 14 days, AUC of composite inflammation scores. On the procedure:
Rat Collagen Induced Arthritis Efficacy Model
Female Lewis rats (≅190 g, Charles River Labs) are immunized with Bovine type II collagen (2 mg/mL) emulsified with an equal volume of adjuvant (aluminum hydroxide). […]. The rats are immunized with approximately […] of the emulsion intradermally on the back near the base of the tail. All animals are re-immunized 7 days later according to the same protocol. The rats begin to develop arthritis (characterized by swelling and redness of one or both ankles) from 12 to 14 days after the first immunization. The rats are equally distributed into five treatment groups at the first signs of arthritis and treatment is initiated with each rat dosed bid for 14 days.
Ankle diameter is measured with calipers 5 days a week and recorded. Data is expressed as the area under the curve (AUC) generated from the composite inflammation scores and statistical analysis performed.

pIC50: −log10 of the molar value.

`CC(C)(C)Cn1c(N)nc2ccc(-c3nc(C(C)(C)C)[nH]c3-c3ccc(F)cc3)nc21.CS(=O)(=O)O.CS(=O)(=O)O` [EXAMPLE 104, Crystalline 5-[2-tert-Butyl-5-(4-fluoro-phenyl)-1H-imidazol-4-yl]-3-(2,2-dimethyl-propyl)-3H-imidazo[4,5-b]pyridin-2-ylamine dimethanesulfonate] gave a pIC50 in assay [1] of 8.20. The “inhibition of TNF-α synthesis (in words)” value in assay [2] (oral 1, 3, 10, 30 mg/kg) is reported as “dose-dependent inhibition”. Moreover, in assay [2] (oral, LPS intra-articular 1 h later, ankle lavage after 2 h), the “TMED50 (inhibition of TNF-α synthesis)” value came out at 0.54 mg/kg. Besides, in assay [3], the TMED50 is on record as 1.5 mg/kg (b.i.d.).
